Results reported in patent US20250340603A1, “A METHOD FOR MODULATING PLANT ADAPTATION TRAITS” (CRAG (Centre de Recerca en Agrigenòmica), priority 2021, published 2025).

T1: BRL3 (BRASSINOSTEROID RECEPTOR LIKE 3), full length, fused to a half of YFP (BiFC construct) (Arabidopsis thaliana, UniProt Q9LJF3 24-1164)
T1 construct: also called BRL3 receptor; AT3G13380; not shown: half of YFP (YN or YC, both directions tested) from vectors pGTQL1211-YN / pGTQL1221-YC
T1 sequence: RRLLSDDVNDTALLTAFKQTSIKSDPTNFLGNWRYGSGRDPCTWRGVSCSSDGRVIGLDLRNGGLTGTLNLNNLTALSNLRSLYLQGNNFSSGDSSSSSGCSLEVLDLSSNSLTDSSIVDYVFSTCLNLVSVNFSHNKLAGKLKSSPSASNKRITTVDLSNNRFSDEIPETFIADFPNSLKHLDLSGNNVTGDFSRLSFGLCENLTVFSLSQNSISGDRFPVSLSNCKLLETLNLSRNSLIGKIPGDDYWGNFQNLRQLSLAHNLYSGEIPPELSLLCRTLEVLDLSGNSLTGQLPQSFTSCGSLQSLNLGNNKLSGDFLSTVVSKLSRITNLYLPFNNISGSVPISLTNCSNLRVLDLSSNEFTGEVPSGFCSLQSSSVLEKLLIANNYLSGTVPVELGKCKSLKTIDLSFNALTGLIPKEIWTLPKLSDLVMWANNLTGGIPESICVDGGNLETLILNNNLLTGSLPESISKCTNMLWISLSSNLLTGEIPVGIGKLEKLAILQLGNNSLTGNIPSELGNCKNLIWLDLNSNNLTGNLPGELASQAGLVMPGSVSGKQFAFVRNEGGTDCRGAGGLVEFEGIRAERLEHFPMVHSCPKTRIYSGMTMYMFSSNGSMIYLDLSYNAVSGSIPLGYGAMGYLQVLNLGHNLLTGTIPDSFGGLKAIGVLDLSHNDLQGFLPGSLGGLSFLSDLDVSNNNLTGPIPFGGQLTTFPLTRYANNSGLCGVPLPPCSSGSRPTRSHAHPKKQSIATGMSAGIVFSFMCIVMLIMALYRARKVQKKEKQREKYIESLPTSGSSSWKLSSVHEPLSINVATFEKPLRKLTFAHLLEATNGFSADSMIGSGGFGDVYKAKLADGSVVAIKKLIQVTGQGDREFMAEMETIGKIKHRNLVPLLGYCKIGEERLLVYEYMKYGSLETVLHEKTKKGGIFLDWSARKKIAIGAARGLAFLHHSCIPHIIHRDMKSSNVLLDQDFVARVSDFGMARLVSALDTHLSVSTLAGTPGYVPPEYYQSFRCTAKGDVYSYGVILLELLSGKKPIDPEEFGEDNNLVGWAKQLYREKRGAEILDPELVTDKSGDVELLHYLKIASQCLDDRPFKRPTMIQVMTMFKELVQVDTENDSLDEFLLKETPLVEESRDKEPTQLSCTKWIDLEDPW


Tests used:
[1] = system: WT (Col-0) seedlings; assay: BRZ220 treatment, hypocotyl elongation growth; format: in vivo, Arabidopsis thaliana; conditions: 1 μM BRZ220 in media, WT plants, 22° C. or 28° C., 6 d, LD
Procedure: Pharmacological treatments were performed in plates adding hormones/drugs in the media. Chemicals used include; 1 μM BRZ220 (Gift from T. Nakano, RIKEN, Japan) or 50 μM Bikinin (200980, Sigma-Aldrich) for 6-d in control (long days, 22° C.) or high temperature (long days, 28° C.) conditions. Hypocotyl length were measured using the Image J software (v.1.48v) (https-/imagej.nih.gov/ij/). For hypocotyl elongation analysis, seedlings were grown in horizontally placed 0.5MS− media plates in controlled growth conditions (Aralab 600; long days 16:8h day/night cycle 60% relative humidity and 50-70 μmol m^−2 s^−1 of cool-white fluorescent light) at 22° C. or 28° C. temperature for 5-7d. Plates were photographed and hypocotyl length were measured using the ImageJ software (v.1.48v) (https:/imagej.nih.gov/ij/). For root growth analysis, seedlings were grown in vertically placed 0.5MS− media plates in controlled growth conditions (Aralab 600; long days 16:8h day/night cycle; 22° C.). MyROOT software (Betegón-Putzé et al., 2019) was used to compare root growth of plants. Lateral roots were manually counted under a stereozoom microscope in 9-d-old seedlings.

[2] = target: T1, BRL3 (BRASSINOSTEROID RECEPTOR LIKE 3), …; assay: BiFC (split YFP) in Nicotiana benthamiana leaves, confocal microscopy

Molecule	hypocotyl size [1]	binding result [2]
CC(O)(c1ccccc1)C(Cc1ccc(Cl)cc1)n1cncn1 (centres unmarked) [BRZ220, Brassinazole]	reduced hypocotyl size irrespective of the temperature	–
BKI1, BiFC negative control (other, UniProt Q9FMZ0 1-337, looked up, whole, on cells; not shown: the construct of this control is not described) METNLQQVKNSSQTFSEKQNPKQEASPSPISSTCSSPSHDFSFTISLQPLSSSSKHISPTLRSPSKTTSSYQQTDPFAVDLSPADEIFFHGHLLPLHLLSHLPVSPRTSTGSYNDGFTLPVKDILPDQPTNNNNNTENAITNISTEAKDDNTEDKAEGEIRVKTKPIKSFSLFGLSKWRKGFESNEREQEQQQQKIKKPMSLDLSHAVKKYIRMLFQKRGNGTQFWNRRQTSSYSFSSSLMGPNGNSKTMINGSYNKRDLIRGRRGELFSAPASMRTSPTNSGHLRVSTAGLSSSSGSTSSSSSDSTMEELQAAIQAAIAHCKNSSAVDRDDKVKDS	–	no binding
